Results taken from BindingDB's records for doi:10.1021/jm980294n (University of Utah, 1998).

Experiments:
[1] = Inhibition of insulin receptor mediated mitogenesis of NIH3T3 cells
[2] = Inhibition of Epidermal growth factor receptor mediated mitogenesis of NIH3T3 cells

SMILES | IC50 [1] | IC50 [2]
COc1ccc(Cc2nc(NC3=NC(=O)N(C)C3=O)n(C)c2Cc2ccc(O)cc2)cc1 [4-(5-(4-hydroxybenzyl)-4-(4-methoxybenzyl)-1-methyl-1H-imidazol-2-ylamino)-1-methyl-1H-imidazole-2,5-dione] | 242 µM | 11.3 µM
COc1ccc(Cc2cn(Cc3ccc(OC)cc3)c(NC3=NC(=O)N(C)C3=O)n2)cc1 [5-[1,4-Bis-(4-methoxy-benzyl)-1H-imidazol-2-ylamino]-3-methyl-imidazole-2,4-dione] | 6.7 µM | 36.9 µM
COc1ccc(Cc2cn(Cc3ccc(O)cc3)c(NC3=NC(=O)N(C)C3=O)n2)cc1 [5-[1-(4-Hydroxy-benzyl)-4-(4-methoxy-benzyl)-1H-imidazol-2-ylamino]-3-methyl-imidazole-2,4-dione] | 9.8 µM | 22.7 µM
